Experiments:
[1] = system: myocardial ischemia/reperfusion injury; experiment: Myocardial ischemia/reperfusion injury, infarct size; type: in vivo, C57/Bl6J mice; conditions: for decrease of infarct size vs saline: 30 min ischemia, 3 h reperfusion, p<0.05 vs saline
Experimental: Adult C57/Bl6J mice of 12-15 weeks old (20-30 g) were anesthetized with sodium pentobarbital (60 mg/kg, i.p.). The animals were intubated and ventilated with 100% oxygen (200 μl/breath at a rate of 170 breaths/min), using a Harvard rodent ventilator (Model 845, Harvard Apparatus, Les Ulis, France). Body temperature was monitored with a rectal probe connected to a digital thermometer, and maintained at 37° C. using a heating pad. A catheter was inserted into the jugular vein for bolus injection of drug (0.01 ml/10 g BW, 10-20 sec). The electrocardiogram (ECG) was recorded throughout the experiments on a Gould TA240 recorder (ECG biotech; Gould Instruments, Cleveland, Ohio, USA). A left thoracotomy was performed to expose the heart, and the pericardium was removed. The left anterior descending coronary artery was occluded with an 8.0 prolene suture, 2 mm from the tip of the left atrium for 30 min. Successful coronary occlusion was verified by the development of a pale color in the distal myocardium and by ST segment elevation and QRS widening on the ECG. After 30 min of sustained ischemia, coronary blood flow was restored by loosening the suture. Successful reperfusion was confirmed by visualization of hyperaemic response and restoration of normal ECG. The lungs were then reinflated by increasing positive end expiratory pressure, and the chest was closed. Reperfusion was maintained for a 3-h period. Drugs dissolved in isotonic saline were injected 5 minutes before reperfusion. B2 receptor agonist was administrated at different non hypotensive dosages as defined in preliminary experiments. To ensure the role of specific activation of B2 receptor, B2 agonist was tested with pretreatment by B2R antagonist (HOE140). After reperfusion, the chest was reopened, the coronary artery was reoccluded, and 0.5 ml of a 5% Evans blue solution was injected as a bolus into the jugular vein in order to delineate the area at risk (AR), which remained unstained by the Evans blue. The heart was excised, and the left ventricle (LV) was isolated, weighed, and sliced into 4 transverse pieces from base to apex, the first cutter blade being positioned at the site of the coronary occlusion. The slices were weighed, and color digital images of both sides of each slice were obtained with a Power Shot S50 zoom digital camera (Canon, Tokyo, Japan) connected to a microscope (Leica M Z 75; Leica Microsystems, Rueil-Malmaison, France), using the Adobe Photoshop software (Adobe Systems, San Jose, Calif., USA). The slices were then incubated at 37° C. with buffered 1% 2,3,5-triphenyltetrazolium chloride (TTC) solution for 20 min. Viable myocardium, which contained dehydrogenases, reacted with TTC and was stained brick red, whereas any necrotic tissue remained unstained due to the lack of active enzymes. The tissue sections were then fixed in a buffered 10% formalin solution for 24 h before being photographed again to delineate the IS. The cross-sectional area, the lumen area, the AR (unstained by Evans blue), and IS (unstained by TTC) of the LV were outlined on each color image and quantified by a masked observer using the Scion Image software (Scion Image for Windows; http://www.scioncorp.com). The absolute weights of AR and IS were then calculated for each slice. The sum of the absolute weight values of AR and IS of the 3 ischemic slices of each heart was calculated and expressed as a percentage of the total weight of the slice. The ratio of IS to AR was calculated from these absolute weight evaluations and expressed as a percentage of AR.

[2] = target: T1, hB2R (Homo sapiens, UniProt P30411); conditions: naturally expressed and recombinant hB2R; cited from earlier work
T1 sequence (P30411 1-391): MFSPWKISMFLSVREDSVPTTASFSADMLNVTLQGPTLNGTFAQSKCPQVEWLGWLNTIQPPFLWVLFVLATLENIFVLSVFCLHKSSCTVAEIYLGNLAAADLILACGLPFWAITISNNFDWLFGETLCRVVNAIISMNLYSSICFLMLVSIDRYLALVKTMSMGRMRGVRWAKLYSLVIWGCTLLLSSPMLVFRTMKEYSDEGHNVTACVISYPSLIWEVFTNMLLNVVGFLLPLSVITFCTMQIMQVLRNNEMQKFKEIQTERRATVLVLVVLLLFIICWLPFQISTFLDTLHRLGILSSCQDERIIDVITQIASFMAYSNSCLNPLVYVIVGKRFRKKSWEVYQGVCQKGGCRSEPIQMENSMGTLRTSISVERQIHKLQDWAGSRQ

[3] = system: hindlimb ischemia in streptozotocin-diabetic mice; experiment: Peripheral (hindlimb) ischemia in diabetic mice, neovascularization; type: in vivo, C57BL/6J mice
Experimental: Two-to three-month-old male C57BL/6J mice were used. Type 1 diabetes was induced by 5 daily ip injections of low-dose of streptozotocin (50 mg/kg dissolved in 0.05M sodium citrate buffer, pH 4.5). Ischemia of hinlimb was induced by permanent ligation of the right femoral artery once the diabetes is established (hyperglycemia >300 mg/dl, 4 weeks after streptozocin injections). Mice were anesthetized by isoflurane inhalation (0.8% in oxygen stream) and the proximal part of the femoral artery just below the origin of the circumflexa femoris lateralis was occluded with a silk suture. Concomitantly with the surgery, half the mice was treated with the B2 agonist (30 nmol/kg·h^−1), infused continuously through osmotic minipumps implanted subcutaneously. The other half of the mice was infused with the vehicle (isotonic saline). Healthy mice, non diabetic without ischemia were used as control.
Two weeks after the onset of ischemia, neovascularization was evaluated by two methods. —Arteries were quantified by high definition microangiography using barium sulfate and digital X-ray transducer. Mice were anesthetized (Pentobarbital injection, 60 mg/kg, I.P.) and longitudinal laparatomy was performed to introduce a polyethylene catheter into the abdominal aorta to inject contrast medium (Barium sulfate, 1 mg/ml). Images (two per animal) were acquired using a high-definition digital X-ray transducer. Vessel density was expressed as a percentage of pixels per image occupied by vessel density in the quantification area. —Capillary density was analyzed by immunohistochemistry using fibronectin-FITC antibody. Frozen tissue sections (7 μm) from calf muscle were incubated with rabbit polyclonal antibody directed against total fibronectin (dilution 1:50) to identify capillaries. The number of capillary by field was determined in both ischemic and nonischemic legs. Results are expressed as ischemic to nonischemic ratio.

[4] = cited from earlier work
[5] = target: T1, hB2R; conditions: naturally expressed and recombinant hB2R; cited from earlier work; remark: listed apart in the source
[6] = 30 nmol/kg·h s.c. osmotic minipump, 14 days of ischemia

Substance | effect on infarct size ([1]; antagonist given alone) | effect on cardioprotection by B2 agonist ([1]; pretreatment with B2R antagonist before B2 agonist) | in vitro potencies compared with bradykinin [2] | angiographic score [3, 6] | capillary density [3, 6] | angiogenic effect ([3]; chronic administration 30 nmol/kg·h, FIG. 2) | potency and duration of action in vivo compared with bradykinin [4] | in vitro affinities compared with bradykinin [5] | decrease of infarct size vs saline ([1]; 0.01 nmol/kg i.v. bolus 5 min before reperfusion) [%] | decrease of infarct size vs saline ([1]; 0.1 nmol/kg i.v. bolus 5 min before reperfusion) [%] | decrease of infarct size vs saline ([1]; 0.3 nmol/kg i.v. bolus 5 min before reperfusion) [%] | infarct size relative to area at risk ([1]; acute administration, FIG. 1)
HOE140 | no effect on infarct size | suppressed the cardioprotective effect of B2 agonist | – | – | – | – | – | – | – | – | – | –
[Hyp(3), Thi(5), (N)Chg(7), Thi(8)]-BK [peptide 20] | – | – | greater | increase | increase | proangiogenic effect | highly superior to bradykinin | greater | −37.2 | −47.3 | −35.6 | Reducing effect

Source: patent US20150105329A1, “Methods and Pharmaceutical Compositions for Prevention or Treatment of Ischemia Related Organ Damage” (INSERM (Institut National de la Sante et de la Recherche …, priority 2012, published 2015)
